According to patent US7935722B2 (Eli Lilly and Company, priority 2005, dated 2011):
Like-named read-outs stand apart in the source and are kept apart here.

Legend:
[1] = target: T1, human AR (androgen receptor) (Homo sapiens, UniProt P10275); assay: Steroid hormone nuclear receptor binding assay, AR binding
T1 construct: expressed in transfected cells; host or cells: 293 cells (293-AR lysate)
T1 sequence (P10275 1-920): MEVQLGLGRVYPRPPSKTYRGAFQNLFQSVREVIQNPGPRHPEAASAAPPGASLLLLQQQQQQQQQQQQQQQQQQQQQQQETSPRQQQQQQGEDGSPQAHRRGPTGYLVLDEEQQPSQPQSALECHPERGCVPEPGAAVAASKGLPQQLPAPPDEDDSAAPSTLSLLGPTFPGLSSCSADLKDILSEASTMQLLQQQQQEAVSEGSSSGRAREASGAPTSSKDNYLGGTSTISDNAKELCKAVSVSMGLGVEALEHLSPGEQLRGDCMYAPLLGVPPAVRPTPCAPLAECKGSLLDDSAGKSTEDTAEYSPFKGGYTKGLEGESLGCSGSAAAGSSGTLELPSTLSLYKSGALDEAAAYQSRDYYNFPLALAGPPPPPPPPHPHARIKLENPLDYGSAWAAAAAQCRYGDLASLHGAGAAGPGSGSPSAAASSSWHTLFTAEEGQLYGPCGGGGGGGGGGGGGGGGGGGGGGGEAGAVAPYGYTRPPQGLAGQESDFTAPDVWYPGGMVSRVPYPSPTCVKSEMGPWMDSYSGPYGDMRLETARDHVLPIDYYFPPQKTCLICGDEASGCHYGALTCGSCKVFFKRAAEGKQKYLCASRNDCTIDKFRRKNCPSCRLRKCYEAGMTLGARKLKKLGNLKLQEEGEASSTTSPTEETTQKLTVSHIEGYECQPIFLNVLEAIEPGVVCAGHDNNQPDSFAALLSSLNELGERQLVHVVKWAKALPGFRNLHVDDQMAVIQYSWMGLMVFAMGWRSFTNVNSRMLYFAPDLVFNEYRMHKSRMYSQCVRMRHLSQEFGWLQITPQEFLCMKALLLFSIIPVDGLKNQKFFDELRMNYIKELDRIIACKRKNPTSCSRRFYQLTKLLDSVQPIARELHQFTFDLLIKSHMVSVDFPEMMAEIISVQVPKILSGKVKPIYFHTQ
Summary of the method: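 Competition binding with lysates of 293 cells overexpressing human AR, [3H]-methyltrienolone tracer, compounds from about 0.01 nM to 10 μM, overnight at 4 °C; non-specific binding set with 500 nM methyltrienolone. Bound tracer counted by scintillation after charcoal-dextran separation; IC50 converted to Ki by Cheng-Prusoff using Kd from saturation binding.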

[2] = target: T2, human androgen receptor (AR) (Homo sapiens, UniProt P10275); assay: C2C12 AR/ARE reporter assay; assay type: cell-based
T2 construct: expressed in transfected cells; host or cells: mouse myoblast C2C12 cells, transiently co-transfected
T2 sequence (P10275 1-920): T1 sequence (P10275 1-920)
Summary of the method: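 Mouse C2C12 myoblasts co-transfected with AR/ARE reporter were plated in charcoal-stripped serum and treated for 48 h with compound from about 0.01 nM to 10 μM. Luciferase activity gave EC50 by 4-parameter logistic fit. Efficacy is expressed as % of maximal stimulation by 10 nM methyltrienolone.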

[3] = C2C12, read-out: C2C12 % Efficacy
[4] = average of n trials, read-out: AR binding Ki
[5] = C2C12 AR/ARE reporter assay, average of n trials, read-out: C2C12 % Efficacy
[6] = C2C12 AR/ARE reporter assay, average of n trials, read-out: C2C12 EC50

Structure (SMILES): Cc1ncc(-c2ccc3c(c2)c2c(n3Cc3cccc(F)c3)CCC(NC(=O)C(C)C)C2)cn1 (centres unmarked) [Example 136]
- Ki [1]: 13.8 nM
- EC50 [2]: 0.7 nM
- Emax [2, 3]: 90.4%

Structure (SMILES): COc1ccc2c(c1)c1c(n2Cc2ccccc2)CCC(NC(=O)C(C)C)C1 (centres unmarked) [Example 67, N-(9-Benzyl-6-methoxy-2,3,4,9-tetrahydro-1H-carbazol-3-yl)-isobutyramide]
- Ki [1]: 6.2 nM
- EC50 [2]: 18.6 nM
- Emax [2, 3]: 96.9%

Structure (SMILES): COC(=O)NC1CCc2c(c3cc(OC(F)(F)F)ccc3n2Cc2cccc(F)n2)C1 (centres unmarked) [Example 164]
- Ki [1, 4]: 42.3 nM
- Emax [2, 5]: 41.8%
- EC50 [2, 6]: 1230 nM

Structure (SMILES): CC(C)C(=O)NC1CCc2c(c3cc([N+](=O)[O-])ccc3n2Cc2cccc(F)c2)C1 (centres unmarked) [Example 61, N-[9-(3-Fluorobenzyl)-6-nitro-2,3,4,9-tetrahydro-1H-carbazol-3-yl]isobutyramide]
- Ki [1]: 2.3 nM
- EC50 [2]: 3.6 nM
- Emax [2, 3]: 83.2%

Structure (SMILES): Cc1nc(Cn2c3c(c4cc(C#N)ccc42)C[C@H](NC(=O)C(C)C)CC3)cs1 [Example 151, (R)-N-[6-cyano-9-(2-methyl-thiazol-4-ylmethyl)-2,3,4,9-tetrahydro-1H-carbazol-3-yl]-isobutyramide]
- Ki [1]: 12.4 nM
- EC50 [2]: 30.4 nM
- Emax [2, 3]: 85.6%

Structure (SMILES): COc1ccc2c(c1)c1c(n2Cc2cccnc2)CCC(NC(=O)C(C)C)C1 (centres unmarked) [Example 144]
- Ki [1]: 737 nM
- EC50 [2]: 275 nM
- Emax [2, 3]: 41.4%

Structure (SMILES): CC(C)C(=O)NC1CCc2c(c3cc(-c4ccncc4)ccc3n2Cc2cccc(F)c2)C1 (centres unmarked) [Example 134]
- Ki [1, 4]: 380 nM
- Emax [2, 5]: 37.6%
- EC50 [2, 6]: 365 nM

Structure (SMILES): CC(C)C(=O)NC1CCc2c(c3cc(C#N)ccc3n2Cc2ccccn2)C1 (centres unmarked) [Example 146]
- Ki [1]: 12.7 nM
- EC50 [2]: 15.5 nM
- Emax [2, 3]: 86.8%

Structure (SMILES): CN(C)C(=O)NC1CCc2c(c3cc(Br)ccc3n2Cc2cccc(F)c2)C1 (centres unmarked) [Example 176, 3-[6-Bromo-9-(3-fluoro-benzyl)-2,3,4,9-tetrahydro-1H-carbazol-3-yl]-1,1-dimethyl-urea]
- Ki [1]: 7.8 nM
- EC50 [2]: 46 nM
- Emax [2, 3]: 61.5%

Structure (SMILES): CC[C@@H](C)C(=O)NC1CCc2c(c3cc(Br)ccc3n2Cc2cccc(F)c2)C1 (some centres unmarked) [Example 171]
- Ki [1, 4]: 8.2 nM
- Emax [2, 5]: 63.5%
- EC50 [2, 6]: 411 nM

Structure (SMILES): CON(C)C(=O)NC1CCc2c(c3cc(C#N)ccc3n2Cc2cccc(F)c2)C1 (centres unmarked) [Example 180, 3-[6-Cyano-9-(3-fluorobenzyl)-2,3,4,9-tetrahydro-1H-carbazol-3-yl]-1-methoxy-1-methyl-urea]
- Ki [1]: 4.6 nM
- EC50 [2]: 2.2 nM
- Emax [2, 3]: 97%

Structure (SMILES): COc1ccc2c3c(n(Cc4ccccc4)c2c1)CCC(NC(=O)C(C)C)C3 (centres unmarked) [Example 77]
- Ki [1]: 103 nM
- EC50 [2]: 1200 nM
- Emax [2, 3]: 74.9%

Structure (SMILES): CN(C)C(=O)NC1CCc2c(c3cc(OC(F)(F)F)ccc3n2Cc2cccc(F)n2)C1 (centres unmarked) [Example 165]
- Ki [1]: 14.2 nM
- EC50 [2]: 15.3 nM
- Emax [2, 3]: 74.6%

Structure (SMILES): CC(C)C(=O)NC1CCc2c(c3cc(C#N)ccc3n2Cc2ccccc2N(C)C)C1 (centres unmarked) [Example 114, N-[6-Cyano-9-furan-(2-dimethylamino-benzyl)-2,3,4,9-tetrahydro-1H-carbazol-3-yl]-isobutyramide]
- Ki [1]: 20.8 nM
- EC50 [2]: 98.7 nM
- Emax [2, 3]: 118%

Structure (SMILES): CNC(=O)NC1CCc2c(c3cc(C#N)ccc3n2Cc2cccc(F)c2)C1 (centres unmarked) [Example 179, 1-[6-Cyano-9-(3-fluorobenzyl)-2,3,4,9-tetrahydro-1H-carbazol-3-yl]-3-methyl-urea]
- Ki [1, 4]: 14.6 nM
- Emax [2, 5]: 114%
- EC50 [2, 6]: 24.1 nM

Structure (SMILES): CC(C)C(=O)NC1CCc2c(c3cc(C(=O)C(F)(F)F)ccc3n2Cc2cccc(F)c2)C1 (centres unmarked) [Example 210, N-[9-(3-Fluoro-benzyl)-6-(2,2,2-trifluoro-acetyl)-2,3,4,9-tetrahydro-1H-carbazol-3-yl]-isobutyramide]
- Ki [1]: 15.5 nM
- EC50 [2]: 17.6 nM
- Emax [2, 3]: 71.2%

Structure (SMILES): CC(C)C(=O)NC1CCc2c(c3cc(OCC4CC4)ccc3n2Cc2cccc(F)c2)C1 (centres unmarked) [Example 92, N-[6-Cyclopropylmetboxy-9-(3-fluoro-benzyl)-2,3,4,9-tetrahydro-1H-carbazol-3-yl]-isobutyramide]
- Ki [1]: 4.1 nM
- EC50 [2]: 3 nM
- Emax [2, 3]: 73.4%

Structure (SMILES): COc1ccc2c(c1)c1c(n2Cc2ccccc2)CCC(NC(=O)C2CC2)C1 (centres unmarked) [Example 68, Cyclopropanecarboxylic acid (9-benzyl-6-methoxy-2,3,4,9-tetrahydro-1H-carbazol-3-yl)-amide]
- Ki [1]: 46.2 nM
- EC50 [2]: 40.8 nM
- Emax [2, 3]: 98%

Structure (SMILES): CCNc1ccccc1Cn1c2c(c3cc(C#N)ccc31)CC(NC(=O)C(C)C)CC2 (centres unmarked) [Example 112, N-[6-Cyano-9-(2-ethylamino-benzyl)-2,3,4,9-tetrahydro-1H-carbazol-3-yl]-isobutyramide]
- Ki [1]: 12.7 nM
- EC50 [2]: 27.2 nM
- Emax [2, 3]: 101%

Structure (SMILES): CC(C)C(=O)NC1CCc2c(c3cc(N(C)C)ccc3n2Cc2cccc(F)c2)C1 (centres unmarked) [Example 62, N-[6-Dimethylamino-9-(3-fluoro-benzyl)-2,3,4,9-tetrahydro-1H-carbazol-3-yl]-isobutyramide]
- Ki [1]: 110 nM
- EC50 [2]: 369 nM
- Emax [2, 3]: 56.1%

Structure (SMILES): CC(=O)c1ccc2c(c1)c1c(n2Cc2cccc(F)c2)CC[C@@H](NC(=O)C(C)C)C1 [Example 191, (R)-N-[6-Acetyl-9-(3-fluoro-benzyl)-2,3,4,9-tetrahydro-1H-carbazol-3-yl]-isobutyramide]
- Ki [1]: 3.3 nM
- EC50 [2]: 1.2 nM
- Emax [2, 3]: 91.2%

Structure (SMILES): CC(C)C(=O)NC1CCc2c(c3c(F)c(C#N)ccc3n2Cc2cccc(F)c2)C1 (centres unmarked) [Example 116, N-[6-Cyano-5-fluoro-9-(3-fluoro-benzyl)-2,3,4,9-tetrahydro-1H-carbazol-3-yl]-isobutyramide]
- Ki [1]: 3.4 nM
- EC50 [2]: 2.7 nM
- Emax [2, 3]: 78.3%

Structure (SMILES): CC(C)C(=O)NC1CCc2c(c3cc(O)ccc3n2Cc2cccc(F)c2)C1 (centres unmarked) [Example 91, N-[9-(3-Fluoro-benzyl)-6-hydroxy-2,3,4,9-tetrahydro-1H-carbazol-3-yl]-isobutyramide]
- Ki [1]: 11.8 nM
- EC50 [2]: 97.1 nM
- Emax [2, 3]: 86.9%

Structure (SMILES): CC(C)C(=O)NC1CCc2c(c3cc(C#N)ccc3n2Cc2cccs2)C1 (centres unmarked) [Example 158, N-(6-Cyano-9-thiophen-2-ylmethyl-2,3,4,9-tetrahydro-1H-carbazol-3-yl)-isobutyramide]
- Ki [1]: 3.1 nM
- EC50 [2]: 4.5 nM
- Emax [2, 3]: 124%

Structure (SMILES): CC(C)C(=O)N[C@@H]1CCc2c(c3cc(-c4cnc(N)s4)ccc3n2Cc2cccc(F)c2)C1 [Example 141]
- Ki [1]: 10 nM
- EC50 [2]: 41 nM
- Emax [2, 3]: 102%

Structure (SMILES): CC(C)C(=O)NC1CCc2c(c3cc(C#N)ccc3n2Cc2cnc(Cl)s2)C1 (centres unmarked) [Example 155, N-[9-(2-Chloro-thiazol-5-ylmethyl)-6-cyano-2,3,4,9-tetrahydro-1H-carbazol-3-yl]-isobutyramide]
- Ki [1]: 13.5 nM
- EC50 [2]: 102 nM
- Emax [2, 3]: 54.8%

Structure (SMILES): COC(=O)NC1CCc2c(c3cc(OC(F)(F)F)ccc3n2Cc2cccc(F)c2)C1 (centres unmarked) [Example 168]
- Ki [1, 4]: 37 nM
- Emax [2, 5]: 56.7%
- EC50 [2, 6]: 280 nM

Structure (SMILES): COc1ccc(Cn2c3c(c4cc(C#N)ccc42)CC(NC(=O)C(C)C)CC3)cc1 (centres unmarked) [Example 87]
- Ki [1]: 17.7 nM
- Emax [2, 3]: 10.6%

Structure (SMILES): CC(C)C(=O)N[C@@H]1CCc2c(c3cc(C#N)ccc3n2Cc2cnccn2)C1 [Example 160, (R)-N-(6-Cyano-9-pyrazin-2-ylmethyl-2,3,4,9-tetrahydro-1H-carbazol-3-yl)-isobutyramide]
- Ki [1]: 19.8 nM
- EC50 [2]: 6.3 nM
- Emax [2, 3]: 89.5%
